Test results: patent US9981988B2, “Polymorphic forms and co-crystals of a c-Met inhibitor” (AMGEN, INC., priority 2014, dated 2018)

What was measured:
Format in all cases: physicochemical
[1] = Solid state stability under accelerated stability testing conditions, HPLC
Procedure: (§1) High performance liquid chromatography (HPLC) analyses were performed on an Agilent 1100 or 1200 series HPLC equipped with a binary pump, diode-array detector, thermostated column compartment, and auto sampler. Separation and elution was achieved using a reverse-phase column and 0.1% triflouroacetic acid/water/acetonitrile mobile phase.
Solid samples of the free base monohydrate form of Compound M were placed under accelerated stability testing conditions (25° C./60% RH, 40° C./75% RH and 60° C./ambient RH) for 12 weeks.

[2] = Solubility in organic solvents; settings: 20 °C, thermodynamic from solid, 20 to 25° C., at least 12 hours
Procedure: In all studies, excess solid of the compound was allowed to equilibrate for at least 12 hours while stirring.

[3] = Equilibrium solubility in water and aqueous media; settings: water, 22.5 °C, thermodynamic from solid
[4] = Photostability of solid powder (1×ICH dose UV and visible light), HPLC; settings: for degradation: 1×ICH dose, clear glass vials
Procedure: as §1
As shown in the table below minimal degradation, 0.4% and 0.2%, was detected in samples in clear glass vials under UV and visible light, respectively.

[5] = Visible (1200 klux × h), Amber vial
[6] = Visible (1200 klux × h), Clear vial

Total Impurities, Area % (215 nm) ([1]; Week 8, 60 C.): <0.1 Area %
Area % (215 nm), peak 2, RRT 1.09 ([1]; Week 12, 25/60): <0.1 Area %
Area % (215 nm), peak 3, RRT 1.25 ([1]; Week 12, 25/60): <0.1 Area %
Area % (215 nm), peak 4, RRT 1.53 ([1]; Week 12, 25/60): <0.1 Area %
Area % (215 nm), peak monohydrate, RRT 1.00 ([1]; Week 12, 25/60): 100.0 Area %
Total Impurities, Area % (215 nm) ([1]; Week 12, 25/60): <0.1 Area %
Area % (215 nm), peak 2, RRT 1.09 ([1]; Week 12, 40/75): <0.1 Area %
Area % (215 nm), peak 3, RRT 1.25 ([1]; Week 12, 40/75): <0.1 Area %
Area % (215 nm), peak 4, RRT 1.53 ([1]; Week 12, 40/75): <0.1 Area %
Area % (215 nm), peak monohydrate, RRT 1.00 ([1]; Week 12, 40/75): 100.0 Area %
Total Impurities, Area % (215 nm) ([1]; Week 12, 40/75): <0.1 Area %
Area % (215 nm), peak 2, RRT 1.09 ([1]; Week 12, −20 C.): <0.1 Area %
Area % (215 nm), peak 3, RRT 1.25 ([1]; Week 12, −20 C.): <0.1 Area %
Area % (215 nm), peak 4, RRT 1.53 ([1]; Week 12, −20 C.): <0.1 Area %
Area % (215 nm), peak monohydrate, RRT 1.00 ([1]; Week 12, −20 C.): 100.0 Area %
Total Impurities, Area % (215 nm) ([1]; Week 12, −20 C.): <0.1 Area %
solubility ([2]; aqueous with cosolvent or surfactant or cyclodextrin, 25% Dimethyl sulfoxide in water, solid form: monohydrate): 590 µg/mL
solubility ([2]; aqueous with cosolvent or surfactant or cyclodextrin, 50% Dimethyl sulfoxide in water, solid form: monohydrate): 1020 µg/mL
solubility ([2]; aqueous with cosolvent or surfactant or cyclodextrin, 75% Dimethyl sulfoxide in water, solid form: monohydrate): 8450 µg/mL
solubility ([2]; organic solvent or mixture, Acetonitrile, solid form: monohydrate (extra peak observed)): 127000 µg/mL
solubility ([2]; organic solvent or mixture, Ethanol, solid form: monohydrate): 29700 µg/mL
solubility ([2]; organic solvent or mixture, Ethyl Acetate, solid form: monohydrate): 20100 µg/mL
solubility ([2]; organic solvent or mixture, Isopropanol, solid form: monohydrate): 8800 µg/mL
solubility ([2]; organic solvent or mixture, Methanol, solid form: monohydrate): 53900 µg/mL
solubility ([2]; organic solvent or mixture, Methyl Ethyl Ketone, solid form: monohydrate + trace acetone solvate): 45800 µg/mL
solubility ([2]; organic solvent or mixture, Toluene, solid form: monohydrate): 1900 µg/mL
solubility at 138 h ([3]; pH 4.09, water, Sample 2, duration 138 h, isolation method 1, pH 4.09, about 20 to 25° C.): 259 µg/mL
solubility at 69 h ([3]; pH 6.85, water, Sample 3, duration 69 h, isolation method 2, pH 6.85, about 20 to 25° C.): 262 µg/mL
chemical degradation ([4]; 1×ICH dose for UV and visible light, amber glass vials): no chemical degradation
Area % (215 nm), peak No MS signal, RRT 0.80 ([4]; UV (200 W × h/m^2), Amber vial): <0.01 Area %
Area % (215 nm), peak m/z 390, RRT 0.84 ([4]; UV (200 W × h/m^2), Amber vial): 0.06 Area %
Area % (215 nm), peak m/z 520 [M + Na]^+, RRT 0.83 ([4]; UV (200 W × h/m^2), Amber vial): <0.01 Area %
Area % (215 nm), peak m/z 581, RRT 0.82 ([4]; UV (200 W × h/m^2), Amber vial): <0.01 Area %
Area % (215 nm), peak m/z 638, RRT 1.16 ([4]; UV (200 W × h/m^2), Amber vial): 0.05 Area %
Area % (215 nm), peak monohydrate, RRT 1.00 ([4]; UV (200 W × h/m^2), Amber vial): 99.89 Area %
Total Impurities, Area % (215 nm) ([4]; UV (200 W × h/m^2), Amber vial): 0.11 Area %
Area % (215 nm), peak No MS signal, RRT 0.80 ([4]; UV (200 W × h/m^2), Clear vial): 0.02 Area %
Area % (215 nm), peak m/z 390, RRT 0.84 ([4]; UV (200 W × h/m^2), Clear vial): 0.19 Area %
Area % (215 nm), peak m/z 520 [M + Na]^+, RRT 0.83 ([4]; UV (200 W × h/m^2), Clear vial): 0.06 Area %
Area % (215 nm), peak m/z 581, RRT 0.82 ([4]; UV (200 W × h/m^2), Clear vial): 0.05 Area %
Area % (215 nm), peak m/z 638, RRT 1.16 ([4]; UV (200 W × h/m^2), Clear vial): 0.04 Area %
Area % (215 nm), peak monohydrate, RRT 1.00 ([4]; UV (200 W × h/m^2), Clear vial): 99.64 Area %
Total Impurities, Area % (215 nm) ([4]; UV (200 W × h/m^2), Clear vial): 0.36 Area %
degradation ([4]; UV light): 0.4%
Area % (215 nm), peak No MS signal, RRT 0.80 [4, 5]: <0.01 Area %
Area % (215 nm), peak m/z 390, RRT 0.84 [4, 5]: 0.05 Area %
Area % (215 nm), peak m/z 520 [M + Na]^+, RRT 0.83 [4, 5]: <0.01 Area %
Area % (215 nm), peak m/z 581, RRT 0.82 [4, 5]: <0.01 Area %
Area % (215 nm), peak m/z 638, RRT 1.16 [4, 5]: 0.05 Area %
Area % (215 nm), peak monohydrate, RRT 1.00 [4, 5]: 99.89 Area %
Total Impurities, Area % (215 nm) [4, 5]: 0.11 Area %
Area % (215 nm), peak No MS signal, RRT 0.80 [4, 6]: <0.01 Area %
Area % (215 nm), peak m/z 390, RRT 0.84 [4, 6]: 0.13 Area %
Area % (215 nm), peak m/z 520 [M + Na]^+, RRT 0.83 [4, 6]: <0.01 Area %
Area % (215 nm), peak m/z 581, RRT 0.82 [4, 6]: <0.01 Area %
Area % (215 nm), peak m/z 638, RRT 1.16 [4, 6]: 0.04 Area %
Area % (215 nm), peak monohydrate, RRT 1.00 [4, 6]: 99.83 Area %
Total Impurities, Area % (215 nm) [4, 6]: 0.17 Area %
degradation ([4]; visible light): 0.2%
SMILES: COCCOc1cnc2ccn([C@H](C)c3nnc4c(F)cc(-c5cnn(C)c5)cn34)c(=O)c2c1 [free base monohydrate form of Compound M, 6-{(1R)-1-[8-fluoro-6-(1-methyl-1H-pyrazol-4-yl)[1,2,4]triazolo[4,3-a]pyridin-3-yl]ethyl}-3-(2-methoxyethoxy)-1,6-naphthyridin-5(6H)-one]
physical form ([1]; over 12 weeks at 25° C. and 60% relative humidity or at 40° C. and 75% relative humidity): remains in substantially the same physical form
